Measurements as given in US20260217701A1, “SELECTIVE BET INHIBITORS AND USES THEREOF” (Tay Therapeutics Limited, priority 2022, published 2026).
Read-outs that look alike come from different tables or passages of the source.

Key:
BET BD2 = conditions: public sources, not a head-to-head trial, cited from earlier work; for BD2: comparator BET inhibitors; for Selectivity (BD1/BD2): comparator
BRD4 BD2 = target: T1, BRD4 BD2 (Homo sapiens, UniProt O60885); experiment: NanoBRET bromodomain assay, NanoLuc-BRD4-BD2 in HEK293 cells; assay type: binding; conditions: for Fold Selectivity BRD4 BD1/BD2: IC50 BD1/IC50 BD2, qualitative if an IC50 is at the upper limit
T1 construct: HEK293 cells were transfected using NanoLuc-BRD4-BD1 or NanoLuc-BRD4-BD2 fusion vectors
Method: (§1) Plates were then incubated at 37° C.+5% CO2 incubator for 2 hours.
(§2) Fold Selectivity Calculated (IC50 BD1/IC50 BD2).

BRD4 BD1 = target: T2, BRD4 BD1 (Homo sapiens, UniProt O60885); experiment: NanoBRET bromodomain assay, NanoLuc-BRD4-BD1 in HEK293 cells; assay type: binding
T2 construct: HEK293 cells were transfected using NanoLuc-BRD4-BD1 or NanoLuc-BRD4-BD2 fusion vectors
Method: Exemplary compounds of the disclosure are active against BRD4 BD2 and selective over BRD4 BD1. BRD4 is a representative example of the BET family, as the binding sites of all BET family members are structurally similar. […] IC50s and fold selectivity's are determined as described below and are represented in Table 1.
as §1, §2

| Molecule | IC50 (BRD4 BD2) [µM] | Fold Selectivity BRD4 BD1/BD2 (BRD4 BD2) | IC50 (BRD4 BD1) [µM] | BD2 (BET BD2) [nM] | Selectivity (BD1/BD2) (BET BD2; nanoBRET assay) [x] | Selectivity (BD1/BD2) (BET BD2; FRET) |
| --- | --- | --- | --- | --- | --- | --- |
| CNc1nc(-c2nc3ccc(N4CCN(C)CC4)cc3n2Cc2ccccc2)cn2c(C)nnc12 [BI-894999] | – | – | – | 41 | 0.1 | – |
| Cc1noc2c1-c1ccccc1C(c1ccc(Cl)cc1)=N[C@H]2CC(N)=O [Pelabresib] | – | – | – | 17 | – | 5x (FRET) |
| Cc1sc2c(c1C)C(c1ccc(Cl)cc1)=N[C@@H](CC(=O)Nc1ccc(O)cc1)c1nnc(C)n1-2 [MK-8628/OTX-015] | – | – | – | 26 | 1.5 | – |
| Cn1cc(-c2ccccc2C(F)F)c(-c2cn(C)c(=O)c3[nH]c(-c4ccc(F)cc4F)cc23)cc1=O [Example 70] | 0.2 to 1 | x (Fold >2 and ≤50) | > 1 | – | – | – |
| Cn1cc(-c2cccc(CS(C)(=O)=O)c2)c(-c2cn(C)c(=O)c3[nH]c(-c4ccc(F)cc4F)cc23)cc1=O [Example 77] | 0.05 to 0.2 | xx (Fold >50 and ≤200) | > 1 | – | – | – |
| Cc1cc(-c2cc3c(-c4cc(=O)n(C)cc4-c4cccc(S(C)(=O)=O)c4)cn(C)c(=O)c3[nH]2)cc(C)n1 [Example 89] | 0.05 to 0.2 | xx (Fold >50 and ≤200) | > 1 | – | – | – |
| NUV-868 | – | – | – | 2 | – | 1,460x (FRET) |
| Cn1cc(-c2cccc(CN3CCNCC3)c2)c(-c2cn(C)c(=O)c3[nH]c(-c4ccc(F)cc4F)cc23)cc1=O [Example 73] | 0.2 to 1 | x (Fold >2 and ≤50) | > 1 | – | – | – |
| Cc1cccc(C)c1Oc1cn(C)c(=O)cc1-c1cn(C)c(=O)c2[nH]c(-c3cnc(C(C)C)s3)cc12 [Example 54, 4-(5-(2,6-dimethylphenoxy)-1-methyl-2-oxo-1,2-dihydropyridin-4-yl)-2-(2-isopropylthiazol-5-yl)-6-methyl-1,6-dihydro-7H-pyrrolo[2,3-c]pyridin-7-one] | < 0.01 | xxxx (Fold >1000) | > 1 | – | – | – |
| Cc1cc(-c2cc3c(-c4cc(=O)n(C)cc4-c4ccccc4F)cn(C)c(=O)c3[nH]2)cc(C)n1.Cl [Example 26, 2-(2,6-dimethylpyridin-4-yl)-4-(5-(2-fluorophenyl)-1-methyl-2-oxo-1,2-dihydropyridin-4-yl)-6-methyl-1,6-dihydro-7H-pyrrolo[2,3-c]pyridin-7-one hydrogen chloride] | < 0.01 | xxx (Fold >200 and ≤1000) | 0.5 to 1 | – | – | – |

Continued, in another order:

| IC50 (BRD4 BD2) [µM] | Fold Selectivity BRD4 BD1/BD2 (BRD4 BD2) | IC50 (BRD4 BD1) [µM] | Molecule | BD2 (BET BD2) [nM] | Selectivity (BD1/BD2) (BET BD2; nanoBRET assay) [x] | Selectivity (BD1/BD2) (BET BD2; FRET) |
| --- | --- | --- | --- | --- | --- | --- |
| < 0.01 | xxxx (Fold >1000) | > 1 | COCCOc1ccc(-c2cn(C)c(=O)cc2-c2cn(C)c(=O)c3[nH]c(-c4cnn(C(F)(F)F)c4)cc23)cc1 [Example 9, 4-(5-(4-(2-methoxyethoxy)phenyl)-1-methyl-2-oxo-1,2-dihydropyridin-4-yl)-6-methyl-2-(1-(trifluoromethyl)-1H-pyrazol-4-yl)-1,6-dihydro-7H-pyrrolo[2,3-c]pyridin-7-one] | – | – | – |
| < 0.01 | xxxx (Fold >1000) | > 1 | COc1cccc(-c2cc3c(-c4cc(=O)n(C5CC5)cc4-c4ccccc4)cn(C)c(=O)c3[nH]2)c1F [Example 50, 4-(1-cyclopropyl-2-oxo-5-phenyl-1,2-dihydropyridin-4-yl)-2-(2-fluoro-3-methoxyphenyl)-6-methyl-1,6-dihydro-7H-pyrrolo[2,3-c]pyridin-7-one] | – | – | – |
| < 0.01 | x (Fold >2 and ≤50) | 0.05 to 0.5 | CN(C)CCn1cc(-c2ccccc2)c(-c2cn(C)c(=O)c3[nH]c(-c4cnn(C(F)(F)F)c4)cc23)cc1=O.O=CO [Example 61, 4-(1-(2-(dimethylamino)ethyl)-2-oxo-5-phenyl-1,2-dihydropyridin-4-yl)-6-methyl-2-(1-(trifluoromethyl)-1H-pyrazol-4-yl)-1,6-dihydro-7H-pyrrolo[2,3-c]pyridin-7-one formate] | – | – | – |
| < 0.01 | xxxx (Fold >1000) | > 1 | Cn1cc(-c2cc(=O)n(CCN3CCOCC3)cc2-c2ccccc2)c2cc(-c3cnn(C(F)(F)F)c3)[nH]c2c1=O [Example 62, 6-methyl-4-(1-(2-morpholinoethyl)-2-oxo-5-phenyl-1,2-dihydropyridin-4-yl)-2-(1-(trifluoromethyl)-1H-pyrazol-4-yl)-1,6-dihydro-7H-pyrrolo[2,3-c]pyridin-7-one] | – | – | – |
| 0.05 to 0.2 | xx (Fold >50 and ≤200) | > 1 | Cn1cc(-c2cc(=O)n(CCOC(F)(F)F)cc2-c2ccccc2)c2cc(-c3cnn(C(F)(F)F)c3)[nH]c2c1=O [Example 59, 6-methyl-4-(2-oxo-5-phenyl-1-(2-(trifluoromethoxy)ethyl)-1,2-dihydropyridin-4-yl)-2-(1-(trifluoromethyl)-1H-pyrazol-4-yl)-1,6-dihydro-7H-pyrrolo[2,3-c]pyridin-7-one] | – | – | – |
| < 0.01 | xxxx (Fold >1000) | > 1 | COCCn1cc(-c2ccccc2)c(-c2cn(C)c(=O)c3[nH]c(-c4cnn(C(F)(F)F)c4)cc23)cc1=O [Example 52, 4-(1-(2-methoxyethyl)-2-oxo-5-phenyl-1,2-dihydropyridin-4-yl)-6-methyl-2-(1-(trifluoromethyl)-1H-pyrazol-4-yl)-1,6-dihydro-7H-pyrrolo[2,3-c]pyridin-7-one] | – | – | – |
